Measurements reported in patent publication US10745382B2 (BRISTOL-MYERS SQUIBB COMPANY, priority 2015, dated 2020).
pIC50: −log10 of the molar value. Read-outs that look alike come from different tables or passages of the source.

Biological target: T1, PD-1/PD-L1 (Homo sapiens, UniProt Q9NZQ7)
T1 construct: made in house; host or cells: HEK293T
Experiment: PD-1/PD-L1 Homogenous Time-Resolved Fluorescence (HTRF) binding assay
Conditions: PD-L1-His 10 nM, PD-1-Ig 20 nM, read-out: Range or IC50
Summary of the method: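 dPBS + 0.1% BSA + 0.05% Tween-20 buffer; Eu-cryptate anti-Ig 1 nM final, APC anti-His 20 nM final; HTRF read. Counter-assays: PD-1-Ig/PD-L2-His 20 & 5 nM, CD80-His/PD-L1-Ig 100 & 10 nM.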

T1 sequence (Q9NZQ7 with tags, fused parts or gaps): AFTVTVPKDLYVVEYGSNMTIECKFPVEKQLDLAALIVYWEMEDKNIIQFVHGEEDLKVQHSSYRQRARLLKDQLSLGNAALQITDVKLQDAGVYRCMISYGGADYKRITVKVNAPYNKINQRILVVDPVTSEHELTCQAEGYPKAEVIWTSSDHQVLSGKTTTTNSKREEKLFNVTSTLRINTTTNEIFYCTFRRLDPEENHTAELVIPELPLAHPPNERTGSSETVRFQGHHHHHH

Row | Compound | pIC50 (value given as range class) | pIC50 (numeric IC50)
1 | Cc1c(COc2cc(OCc3cncc(C#N)c3)c(CN3C[C@@H](O)C[C@H]3C(=O)O)cc2Cl)cccc1-c1cccc(C(=O)N(C)C)c1C [Example 4033, (2S,4S)-1-(5-chloro-2-((5-cyanopyridin-3-yl)methoxy)-4-((3′-(dimethylcarbamoyl)-2,2′-dimethyl-[1,1′-biphenyl]-3-yl)methoxy)benzyl)-4-hydroxypyrrolidine-2-carboxylic Acid] | 5.70 to 7.00 | 
2 | Cc1c(COc2cc(OCc3cncc(C#N)c3)c(CNC(CO)CO)cc2Cl)cccc1-c1cccc(C(=O)N(C)C)c1C [Example 4034, 3′-((2-chloro-5-((5-cyanopyridin-3-yl)methoxy)-4-(((1,3-dihydroxypropan-2-yl)amino)methyl)phenoxy)methyl)-N,N,2,2′-tetramethyl-[1,1′-biphenyl]-3-carboxamide] | 7.00 to 8.00 | 
3 | Cc1c(COc2cc(OCc3cncc(C#N)c3)c(CNC(C)(CO)CO)cc2Cl)cccc1-c1cccc(C(=O)N(C)C)c1C [Example 4035, 3′-((2-chloro-5-((5-cyanopyridin-3-yl)methoxy)-4-(((1,3-dihydroxy-2-methylpropan-2-yl)amino)methyl)phenoxy)methyl)-N,N,2,2′-tetramethyl-[1,1′-biphenyl]-3-carboxamide] | 7.00 to 8.00 | 
4 | Cc1c(COc2cc(OCc3cncc(C#N)c3)c(CN3CCOC[C@H]3C(=O)O)cc2Cl)cccc1-c1cccc(C(=O)N(C)C)c1C [Example 4036, (S)-4-(5-chloro-2-((5-cyanopyridin-3-yl)methoxy)-4-((3′-(dimethylcarbamoyl)-2,2′-dimethyl-[1,1′-biphenyl]-3-yl)methoxy)benzyl)morpholine-3-carboxylic Acid] | 5.00 to 5.70 | 
5 | Cc1c(COc2cc(OCc3cncc(C#N)c3)c(CN3CCCC[C@H]3C(=O)O)cc2Cl)cccc1-c1cccc(C(=O)N2CCCC2)c1C [Example 4037, (S)-1-(5-chloro-2-((5-cyanopyridin-3-yl)methoxy)-4-((2,2′-dimethyl-3′-(pyrrolidine-1-carbonyl)-[1,1′-biphenyl]-3-yl)methoxy)benzyl)piperidine-2-carboxylic Acid] | 5.70 to 7.00 | 
6 | Cc1c(COc2cc(OCc3cncc(C#N)c3)c(CNC(CO)CO)cc2Cl)cccc1-c1cccc(C(=O)N2CCCC2)c1C [Example 4038, 5-((4-chloro-2-(((1,3-dihydroxypropan-2-yl)amino)methyl)-5-((2,2′-dimethyl-3′-(pyrrolidine-1-carbonyl)-[1,1′-biphenyl]-3-yl)methoxy)phenoxy)methyl)nicotinonitrile] | 7.00 to 8.00 | 
7 | Cc1c(COc2cc(OCc3cncc(C#N)c3)c(CNC(C)(CO)CO)cc2Cl)cccc1-c1cccc(C(=O)N2CCCC2)c1C [Example 4039, 5-((4-chloro-2-(((1,3-dihydroxy-2-methylpropan-2-yl)amino)methyl)-5-((2,2′-dimethyl-3′-(pyrrolidine-1-carbonyl)-[1,1′-biphenyl]-3-yl)methoxy)phenoxy)methyl)nicotinonitrile] | 7.00 to 8.00 | 
8 | CCN(CC)C(=O)c1cccc(-c2cccc(COc3cc(OCc4cncc(C#N)c4)c(CN4CCCC[C@H]4C(=O)O)cc3Cl)c2C)c1C [Example 4040, (S)-1-(5-chloro-2-((5-cyanopyridin-3-yl)methoxy)-4-((3′-(diethylcarbamoyl)-2,2′-dimethyl-[1,1′-biphenyl]-3-yl)methoxy)benzyl)piperidine-2-carboxylic Acid] |  | 7.04
9 | CCN(CC)C(=O)c1cccc(-c2cccc(COc3cc(OCc4cncc(C#N)c4)c(CN4CCC[C@H]4C(=O)O)cc3Cl)c2C)c1C [Example 4041, (5-chloro-2-((5-cyanopyridin-3-yl)methoxy)-4-((3′-(diethylcarbamoyl)-2,2′-dimethyl-[1,1′-biphenyl]-3-yl)methoxy)benzyl)-L-proline] | 5.70 to 7.00 | 
10 | CCN(CC)C(=O)c1cccc(-c2cccc(COc3cc(OCc4cncc(C#N)c4)c(CN4C[C@H](O)C[C@H]4C(=O)O)cc3Cl)c2C)c1C [Example 4042, (2S,4R)-1-(5-chloro-2-((5-cyanopyridin-3-yl)methoxy)-4-((3′-(diethylcarbamoyl)-2,2′-dimethyl-[1,1′-biphenyl]-3-yl)methoxy)benzyl)-4-hydroxypyrrolidine-2-carboxylic Acid] | 5.70 to 7.00 | 
11 | CCN(CC)C(=O)c1cccc(-c2cccc(COc3cc(OCc4cncc(C#N)c4)c(CN4C[C@@H](O)C[C@H]4C(=O)O)cc3Cl)c2C)c1C [Example 4043, (2S,4S)-1-(5-chloro-2-((5-cyanopyridin-3-yl)methoxy)-4-((3′-(diethylcarbamoyl)-2,2′-dimethyl-[1,1′-biphenyl]-3-yl)methoxy)benzyl)-4-hydroxypyrrolidine-2-carboxylic Acid] | 7.00 to 8.00 | 
12 | CCN(CC)C(=O)c1cccc(-c2cccc(COc3cc(OCc4cncc(C#N)c4)c(CNC(CO)CO)cc3Cl)c2C)c1C [Example 4044, 3′-((2-chloro-5-((5-cyanopyridin-3-yl)methoxy)-4-(((1,3-dihydroxypropan-2-yl)amino)methyl)phenoxy)methyl)-N,N-diethyl-2,2′-dimethyl-[1,1′-biphenyl]-3-carboxamide] | 5.70 to 7.00 | 
13 | CCN(CC)C(=O)c1cccc(-c2cccc(COc3cc(OCc4cncc(C#N)c4)c(CNC(C)(CO)CO)cc3Cl)c2C)c1C [Example 4045, 3′-((2-chloro-5-((5-cyanopyridin-3-yl)methoxy)-4-(((1,3-dihydroxy-2-methylpropan-2-yl)amino)methyl)phenoxy)methyl)-N,N-diethyl-2,2′-dimethyl-[1,1′-biphenyl]-3-carboxamide] | 5.70 to 7.00 | 
14 | CCN(CC)C(=O)c1cccc(-c2cccc(COc3cc(OCc4cncc(C#N)c4)c(CN4CCOC[C@H]4C(=O)O)cc3Cl)c2C)c1C [Example 4046, (S)-4-(5-chloro-2-((5-cyanopyridin-3-yl)methoxy)-4-((3′-(diethylcarbamoyl)-2,2′-dimethyl-[1,1′-biphenyl]-3-yl)methoxy)benzyl)morpholine-3-carboxylic Acid] | 5.70 to 7.00 | 
15 | Cc1c(COc2cc(OCc3cncc(C#N)c3)c(CN3CCCC[C@H]3C(=O)O)cc2Cl)cccc1-c1cccc(C(=O)N2CCOCC2)c1C [Example 4048, (S)-1-(5-chloro-2-((5-cyanopyridin-3-yl)methoxy)-4-((2,2′-dimethyl-3′-(morpholine-4-carbonyl)-[1,1′-biphenyl]-3-yl)methoxy)benzyl)piperidine-2-carboxylic Acid] | 5.70 to 7.00 | 
16 | Cc1c(COc2cc(OCc3cncc(C#N)c3)c(CN3CCC[C@H]3C(=O)O)cc2Cl)cccc1-c1cccc(C(=O)N2CCOCC2)c1C [Example 4049, (5-chloro-2-((5-cyanopyridin-3-yl)methoxy)-4-((2,2′-dimethyl-3′-(morpholine-4-carbonyl)-[1,1′-biphenyl]-3-yl)methoxy)benzyl)-L-proline] | 5.70 to 7.00 | 
17 | Cc1c(COc2cc(OCc3cncc(C#N)c3)c(CN3C[C@H](O)C[C@H]3C(=O)O)cc2Cl)cccc1-c1cccc(C(=O)N2CCOCC2)c1C [Example 4050, (2S,4R)-1-(5-chloro-2-((5-cyanopyridin-3-yl)methoxy)-4-((2,2′-dimethyl-3′-(morpholine-4-carbonyl)-[1,1′-biphenyl]-3-yl)methoxy)benzyl)-4-hydroxypyrrolidine-2-carboxylic Acid] | 5.70 to 7.00 | 
18 | Cc1c(COc2cc(OCc3cncc(C#N)c3)c(CN3C[C@@H](O)C[C@H]3C(=O)O)cc2Cl)cccc1-c1cccc(C(=O)N2CCOCC2)c1C [Example 4051, (2S,4S)-1-(5-chloro-2-((5-cyanopyridin-3-yl)methoxy)-4-((2,2′-dimethyl-3′-(morpholine-4-carbonyl)-[1,1′-biphenyl]-3-yl)methoxy)benzyl)-4-hydroxypyrrolidine-2-carboxylic Acid] | 7.00 to 8.00 | 
19 | Cc1c(COc2cc(OCc3cncc(C#N)c3)c(CNC(CO)CO)cc2Cl)cccc1-c1cccc(C(=O)N2CCOCC2)c1C [Example 4052, 5-((4-chloro-2-(((1,3-dihydroxypropan-2-yl)amino)methyl)-5-((2,2′-dimethyl-3′-(morpholine-4-carbonyl)-[1,1′-biphenyl]-3-yl)methoxy)phenoxy)methyl)nicotinonitrile] | 7.00 to 8.00 | 
20 | Cc1c(COc2cc(OCc3cncc(C#N)c3)c(CNC(C)(CO)CO)cc2Cl)cccc1-c1cccc(C(=O)N2CCOCC2)c1C [Example 4053, 5-((4-chloro-2-(((1,3-dihydroxy-2-methylpropan-2-yl)amino)methyl)-5-((2,2′-dimethyl-3′-(morpholine-4-carbonyl)-[1,1′-biphenyl]-3-yl)methoxy)phenoxy)methyl)nicotinonitrile] | 7.00 to 8.00 | 
21 | Cc1c(COc2cc(OCc3cncc(C#N)c3)c(CN3CCOC[C@H]3C(=O)O)cc2Cl)cccc1-c1cccc(C(=O)N2CCOCC2)c1C [Example 4054, (S)-4-(5-chloro-2-((5-cyanopyridin-3-yl)methoxy)-4-((2,2′-dimethyl-3′-(morpholine-4-carbonyl)-[1,1′-biphenyl]-3-yl)methoxy)benzyl)morpholine-3-carboxylic Acid] | 5.70 to 7.00 | 
22 | Cc1c(COc2cc(OCc3cncc(C#N)c3)c(CN[C@@H](CO)C(=O)O)cc2Cl)cccc1-c1cccc(C(=O)N2CCOCC2)c1C [Example 4055, (5-chloro-2-((5-cyanopyridin-3-yl)methoxy)-4-((2,2′-dimethyl-3′-(morpholine-4-carbonyl)-[1,1′-biphenyl]-3-yl)methoxy)benzyl)-L-serine] | 7.00 to 8.00 | 
23 | Cc1c(COc2cc(OCc3cncc(C#N)c3)c(CN[C@@H](CNC(=O)OC(C)(C)C)C(=O)O)cc2Cl)cccc1-c1cccc(C(=O)N2CCOCC2)c1C [Example 4056, (S)-3-((tert-butoxycarbonyl)amino)-2-((5-chloro-2-((5-cyanopyridin-3-yl)methoxy)-4-((2,2′-dimethyl-3′-(morpholine-4-carbonyl)-[1,1′-biphenyl]-3-yl)methoxy)benzyl)amino)propanoic Acid] | 5.70 to 7.00 | 
